Measurements published in patent US11149267B2, “Functional genomics using CRISPR-Cas systems, compositions, methods, screens and applications thereof” (The Broad Institute, Inc., priority 2013, dated 2021).

Assays:
[1] = Dosing of screening agents, CellTiter-Glo cell viability assay; assay type: cell-based; conditions: human, WT KBM7 cells
Description: (§1) Dosing of screening agents: To determine the appropriate dose of 6-TG and etoposide for screening in KBM7 and HL60 cells, cells were seeded in 96-well tissue culture plates at 4000 cells/well in 200 μL of media and were treated in triplicate with varying concentrations of 6-TG and etoposide. A CellTiter-Glo cell viability assay was performed after 4 days to assess drug toxicity. Concentrations at which the viability of WT KBM7 and HL60 cells fell below 5% were chosen.
Pooled screening: In all screens, 90 million target cells were transduced with viral sub pools and selected with blasticidin 24 hours after infection for 3 days. For the 6-TG screen, Cas9-KBM7 cells were cultured in media containing 400 nM 6-TG. For screens with etoposide, Cas9-KBM7 and Cas9-HL60 cells were cultured in media containing 130 nM and 200 nM of etoposide, respectively. Cultures of untreated Cas9-KBM7 and Cas9-HL60 cells were also maintained in parallel. All cells were passaged every 3 days, and after 12 days, cells were harvested for genomic DNA extraction. In negative selection screens, 10 million cells were harvested for genomic DNA extraction 24 hours after infection. The remaining cells were maintained for 12 doublings, before being harvested for genomic DNA extraction.

[2] = CellTiter-Glo cell viability assay in HL60 cells; assay type: cell-based, human; conditions: human, WT HL60 cells; at the concentration chosen for screening (200 nM etoposide); 4 days
Description: (§2) Viability assay: Cells were seeded in 96-well tissue culture plates at 4000 cells/well in 200 μL of media under various treatment conditions. After 3 days, 35 μL of CellTiter-Glo reagent (Promega) was added to each well, mixed for 5 minutes, and the luminescence was read on the SpectraMax M5 Luminometer (Molecular Devices). All experiments were performed in triplicate.
as §1
(§3) Pooled screening: In all screens, 90 million target cells were transduced with viral sub pools and selected with blasticidin 24 hours after infection for 3 days. For the 6-TG screen, Cas9-KBM7 cells were cultured in media containing 400 nM 6-TG. For screens with etoposide, Cas9-KBM7 and Cas9-HL60 cells were cultured in media containing 130 nM and 200 nM of etoposide, respectively. Cultures of untreated Cas9-KBM7 and Cas9-HL60 cells were also maintained in parallel. […]

HL60 cells = test: CellTiter-Glo cell viability assay in HL60 cells; assay type: cell-based, human; conditions: versus parental or sgAAVS1-modified HL60 cells; viability by cellular ATP
Description: as §2, §1, §3

Row | Compound | viability at 4 days, 400 nM ([1]; at the concentration chosen for screening (400 nM 6-TG)) [%] | viability at 4 days, 130 nM ([1]; at the concentration chosen for screening (130 nM etoposide)) [%] | viability at 4 days, 200 nM [2] [%] | resistance to etoposide of isogenic HL60 lines with sgRNAs against TOP2A and CDK6 (HL60 cells)
1 | Nc1nc2nc[nH]c2c(=S)[nH]1 [6-TG, 6-thioguanine] | < 5 | – | – | –
2 | COc1cc([C@@H]2c3cc4c(cc3[C@@H](O[C@@H]3O[C@@H]5CO[C@@H](C)O[C@H]5[C@H](O)[C@H]3O)[C@H]3COC(=O)[C@H]23)OCO4)cc(OC)c1O [etoposide] | – | < 5 | < 5 | much more resistant
